Measured values reported in US12440494B2, “Compounds useful for inhibiting RAF dimers” (ALBERT EINSTEIN COLLEGE OF MEDICINE, priority 2019, dated 2025).

Assays:
[1] = biological target: T1, BRAF^V600E (Homo sapiens (Human), UniProt P15056, V600E); experiment: BRAF^V600E kinase activity, Z′-LYTE enzymatic assay (SelectScreen, Invitrogen); assay type: biochemical; conditions: 100 μM ATP; read-out: BRAF^V600E Inhibition IC50
Method: BRAF kinase assays were performed using the Z′-LYTE™ enzymatic assay (Invitrogen, USA). […] Titrations were performed using a 1:3 dilution. Assays were performed using SelectScreen (Invitrogen).
Target sequence in this assay (P15056 whole entry V600E): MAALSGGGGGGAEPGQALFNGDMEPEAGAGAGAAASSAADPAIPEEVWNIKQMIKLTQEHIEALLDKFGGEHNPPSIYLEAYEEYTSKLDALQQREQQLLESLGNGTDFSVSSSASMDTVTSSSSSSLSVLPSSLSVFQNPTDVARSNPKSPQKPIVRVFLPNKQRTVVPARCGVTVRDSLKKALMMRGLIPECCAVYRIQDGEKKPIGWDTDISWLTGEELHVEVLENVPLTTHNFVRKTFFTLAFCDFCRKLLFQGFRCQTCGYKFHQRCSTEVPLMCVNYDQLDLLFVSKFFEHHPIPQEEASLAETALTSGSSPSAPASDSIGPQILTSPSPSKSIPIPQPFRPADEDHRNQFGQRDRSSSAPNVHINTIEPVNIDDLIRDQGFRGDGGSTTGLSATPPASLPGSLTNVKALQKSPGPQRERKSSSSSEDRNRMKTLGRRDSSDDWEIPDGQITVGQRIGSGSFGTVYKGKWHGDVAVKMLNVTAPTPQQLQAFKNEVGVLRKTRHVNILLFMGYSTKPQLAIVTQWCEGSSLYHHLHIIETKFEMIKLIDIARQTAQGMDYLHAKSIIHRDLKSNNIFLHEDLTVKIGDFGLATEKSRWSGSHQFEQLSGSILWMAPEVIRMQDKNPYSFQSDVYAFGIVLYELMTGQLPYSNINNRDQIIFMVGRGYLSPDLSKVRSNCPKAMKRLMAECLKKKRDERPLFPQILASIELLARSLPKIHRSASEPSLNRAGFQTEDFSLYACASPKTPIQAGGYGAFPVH

[2] = tested on: SMEL239 C4 melanoma cells; experiment: Cell viability assay (Cell-Titer Glo), SKMEL239 C4; assay type: cell-based; conditions: 72 hours
Method: For cell viability assays, we followed the manufacturer's protocol for Cell-Titer Glo (Promega). In brief, cells were plated in 96-well plates at a density of 5000 cells per well. The next day, cells were treated with increasing concentrations of inhibitors for 72 hours at 37° C. At the end of the incubation period, 100 µL of Cell-Titer Glo (Promega) was added to each well and further incubated for 15 min. at room temperature. Cell viability was determined by measuring luminescence and was detected by a F200 PRO microplate reader (TECAN). Viability assays were performed in at least triplicate and the data normalized to vehicle-treated control wells. IC50 values were determined by nonlinear regression analysis using Prism software (Graphpad).

[3] = tested on: FGFR; experiment: Kinase inhibition of known ponatinib target FGFR; assay type: biochemical
[4] = tested on: p61BRAF^V600E dimers (SKMEL239-C4 cells); experiment: pMEK/pERK inhibition by western blot in SKMEL239-C4 melanoma cells; assay type: cell-based
Method: (§1) Cell lines were purchased from ATCC or provided by Poulikos Poulikakos laboratory at Icahn School of Medicine at Mount Sinai. A375, SKMEL30 and SKMEL2 cells were grown in Dulbecco's modified Eagle's medium (DMEM) with 10% fetal bovine serum (FBS), 1% Pen-Strep, 1% Glutamine. […] CALU6 cells were grown in Roswell Park Memorial Institute medium (RPMI) with 10% fetal bovine serum (FBS), 1% Pen-Strep, 1% Glutamine.

[5] = biological target: BRAF monomer (BRAF509H mutant) (Homo sapiens (Human), UniProt P15056, R509H); experiment: Isothermal titration calorimetry with BRAF509H mutant unable to dimerize; assay type: binding; conditions: PBS plus 2% DMSO
Method: ITC was recorded using a MicroCal PEAQ-ITC instrument. […] Immediately before each ITC measurement, concentrated protein solution was diluted 0.8× in PBS, matched to 2% DMSO and used in the syringe. Protein was titrated in 18 or 20 injections of 2 l volume until saturation. Thermodynamic parameters were obtained using PEAQ-ITC analysis software and a one-site binding model.

[6] = biological target: FLT3 (Homo sapiens (Human), UniProt P36888); experiment: Kinase inhibition of known ponatinib target FLT3; assay type: biochemical
[7] = tested on: BRAF^V600E monomers (A375 cells); experiment: pMEK/pERK inhibition by western blot in A375 melanoma cells; assay type: cell-based; conditions: compared to ponatinib
Method: as §1

[8] = tested on: BRAF^V600E; experiment: Biolayer interferometry, direct binding to purified BRAF; set-up: species or system human
Method: Human BRAF kinase domain (residues 443-723) with V600E mutation in addition to designed mutations to improve expression in E. coli as previously described^12 was cloned into the first multiple cloning site of a pET-28a vector, which expresses a hexa-histidine tag at the N-terminus of BRAF. Recombinant protein was transformed and expressed into E. coli strain BL21-Codon Plus(DE3)-RIPL (Agilent Technologies). Protein purification was performed by a rapid two-step procedure using nickel-affinity chromatography (Ni-NTA) followed by size exclusion chromatography with Superdex200 HR 10/30 (GE Healthcare).
BRAF was biotinylated using EZ-Link™ Sulfo NHS-LC-LC-Biotin (Invitrogen) in phosphate-buffered saline (PBS) according to manufacturer instructions. Excess biotin was removed using size exclusion chromatography. Freshly biotinylated protein was immobilized on Super Streptavidin biosensors (SSA) to high levels (6-8 nm) followed by quenching with biocytin. Compound binding experiments were performed at 25° C. in PBS, 0.01% Tween-20 and 2% DMSO. To reference for bulk solvent effects, binding curves were corrected using data from control protein-free SSA biosensors, which were included in each experiment and were treated similarly to protein-loaded sensors.

[9] = tested on: BRAF/MEK complex; experiment: MEK co-immunoprecipitation monitoring BRAF/MEK complex formation in cells; assay type: cell-based; conditions: 1 μM (PHI1) or 1-5 μM (ponatinib), 1 hr
Method: (§2) Western blots were performed from whole cell lysates (WCL) prepared in lysis buffer containing 50 mM Tris-HCl pH7.5, 1% NP40, 150 mM NaCl, 1 mM EDTA and 10% glycerol in the presence of protease inhibitor cocktail (Roche). […] Co-immunoprecipitation assays were performed from whole cell lysate prepared in lysis buffer in the presence of protease inhibitor cocktail (Roche) and incubated at 4° C. overnight with gentle rotation, then protein G beads were added and incubated for 2 hrs more at 4° C. Kinase activity assay were performed following manufactured protocol with some modifications (Millipore). In brief, BRAF and CRAF kinase domain, and MEK1 recombinant proteins were incubated for 15 min with inhibitors, then corresponding substrates were added and incubated for 30 min at 30° C. and assay for western blot.

[10] = tested on: BRAF/CRAF heterodimers; experiment: CRAF co-immunoprecipitation monitoring BRAF/CRAF heterodimerization in cells; assay type: cell-based; conditions: 1 μM (PHI1) or 1-5 μM (ponatinib), 1 hr
Method: as §2

[11] = biological target: T1, BRAF^V600E; experiment: In vitro kinase assay, BRAF^V600E activity to phosphorylate recombinant MEK (western blot); assay type: biochemical; conditions: western blot readout
Target sequence in this assay (P15056 457-717 V600E): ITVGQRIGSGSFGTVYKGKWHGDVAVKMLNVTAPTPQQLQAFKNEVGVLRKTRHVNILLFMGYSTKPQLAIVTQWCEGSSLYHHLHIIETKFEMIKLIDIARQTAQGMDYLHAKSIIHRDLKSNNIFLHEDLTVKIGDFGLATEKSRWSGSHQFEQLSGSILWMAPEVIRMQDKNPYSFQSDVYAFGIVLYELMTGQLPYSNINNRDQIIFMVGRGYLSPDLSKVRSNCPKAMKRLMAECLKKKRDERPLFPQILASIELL
Method: as §2

[12] = biological target: CRAF (Homo sapiens (Human), UniProt P04049); experiment: In vitro CRAF kinase activity assay (western blot); assay type: biochemical
Method: as §2

[13] = tested on: ERK signaling; experiment: Inhibition of ERK signaling in BRAF^V600E, p61BRAF^V600E and RAS mutant/BRAF^WT cell lines (immunoblot); assay type: cell-based; conditions: 1 μM or 5 μM, 1 hr, all cell lines
Method: as §1

FLT3, sequence (P36888 27-993, species assumed): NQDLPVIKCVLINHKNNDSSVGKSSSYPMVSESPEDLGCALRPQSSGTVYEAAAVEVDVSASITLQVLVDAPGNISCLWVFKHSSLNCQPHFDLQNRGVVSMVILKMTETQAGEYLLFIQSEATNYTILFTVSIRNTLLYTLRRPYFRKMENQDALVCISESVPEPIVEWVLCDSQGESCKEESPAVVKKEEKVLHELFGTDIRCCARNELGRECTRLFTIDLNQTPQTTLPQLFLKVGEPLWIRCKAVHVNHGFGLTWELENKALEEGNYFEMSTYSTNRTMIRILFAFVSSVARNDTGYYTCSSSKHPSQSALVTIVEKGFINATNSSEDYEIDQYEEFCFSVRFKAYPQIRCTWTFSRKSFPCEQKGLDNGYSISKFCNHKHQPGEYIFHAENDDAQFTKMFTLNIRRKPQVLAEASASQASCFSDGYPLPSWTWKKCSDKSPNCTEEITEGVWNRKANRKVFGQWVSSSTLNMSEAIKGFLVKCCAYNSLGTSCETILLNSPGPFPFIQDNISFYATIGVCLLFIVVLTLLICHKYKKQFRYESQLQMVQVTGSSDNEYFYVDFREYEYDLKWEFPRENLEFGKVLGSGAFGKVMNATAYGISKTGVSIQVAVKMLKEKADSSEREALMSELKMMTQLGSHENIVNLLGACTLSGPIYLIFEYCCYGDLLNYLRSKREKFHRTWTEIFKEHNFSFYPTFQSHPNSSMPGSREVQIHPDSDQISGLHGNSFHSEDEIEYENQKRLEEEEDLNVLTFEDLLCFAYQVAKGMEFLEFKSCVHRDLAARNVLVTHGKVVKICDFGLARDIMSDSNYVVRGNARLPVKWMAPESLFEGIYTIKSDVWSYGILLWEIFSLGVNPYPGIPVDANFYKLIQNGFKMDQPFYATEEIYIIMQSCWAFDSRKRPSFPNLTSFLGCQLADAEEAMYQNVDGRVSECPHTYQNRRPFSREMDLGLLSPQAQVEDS
CRAF, sequence (P04049 349-609, species assumed): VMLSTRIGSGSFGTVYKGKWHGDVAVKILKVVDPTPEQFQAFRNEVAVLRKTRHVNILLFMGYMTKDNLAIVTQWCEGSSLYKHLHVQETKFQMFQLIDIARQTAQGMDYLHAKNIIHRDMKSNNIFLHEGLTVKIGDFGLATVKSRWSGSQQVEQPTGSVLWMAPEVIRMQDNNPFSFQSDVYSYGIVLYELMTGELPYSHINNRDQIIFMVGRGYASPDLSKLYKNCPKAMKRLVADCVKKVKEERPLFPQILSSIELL
BRAF monomer (BRAF509H mutant), sequence (P15056 443-723 R509H limits assumed): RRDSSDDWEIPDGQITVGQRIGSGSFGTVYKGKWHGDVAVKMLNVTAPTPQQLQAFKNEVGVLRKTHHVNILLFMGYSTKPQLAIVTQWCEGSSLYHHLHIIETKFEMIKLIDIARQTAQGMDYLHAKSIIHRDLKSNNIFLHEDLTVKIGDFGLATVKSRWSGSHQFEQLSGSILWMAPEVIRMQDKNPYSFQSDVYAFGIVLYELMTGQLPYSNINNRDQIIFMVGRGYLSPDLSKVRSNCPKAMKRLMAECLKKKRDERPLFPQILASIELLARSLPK

Structure (SMILES)	IC50 [1] [nM]	other results
Cc1ccc(C(=O)Nc2ccc(CNCCN3CCC(=O)CC3)c(C(F)(F)F)c2)cc1C#Cc1cnc2cccnn12 [Cmp. 5, 3-(imidazo[1,2-b]pyridazin-3-ylethynyl)-4-methyl-N-(4-(((2-(4-oxopiperidin-1-yl)ethyl)amino)methyl)-3-(trifluoromethyl)phenyl)benzamide]	30.7	
Cc1ccc(C(=O)Nc2ccc(CNCCN3CCN(S(C)(=O)=O)CC3)c(C(F)(F)F)c2)cc1C#Cc1cnc2cccnn12 [Cmp. 6, 3-(imidazo[1,2-b]pyridazin-3-ylethynyl)-4-methyl-N-(4-(((2-(4-(methylsulfonyl)piperazin-1-yl)ethyl)amino)methyl)-3-(trifluoromethyl)phenyl)benzamide]	29.4	
C#Cc1cc(C(=O)Nc2ccc(CNCCN3CCN(C(=O)OC(C)(C)C)CC3)c(C(F)(F)F)c2)ccc1C [Cmp. 9, Tert-Butyl4-[2-([[4-(3-Ethynyl-4-Methylbenzamido)-2-(Trifluoromethyl)Phenyl]Methyl] Amino)Ethyl]Piperazine-1-Carboxylate]	10900	
Cc1ccc(C(=O)Nc2ccc(CNCCN3CCNCC3)c(C(F)(F)F)c2)cc1C#Cc1cnc2cccnn12 [Cmp. 13, 3-(2-[imidazo[1,2-b]pyridazin-3-yl]ethynyl)-4-methyl-n-[4-([[2-(piperazin-1-yl)ethyl]amino]methyl)-3-(trifluoromethyl)phenyl]benzamide]	5.5	
CCN(C)S(=O)(=O)Nc1ccc(F)c(C(=O)c2c[nH]c3ncc(-c4cnc(C5CC5)nc4)cc23)c1F [PLX7904, reference compound]	6.7	
Cc1ccc(C(=O)Nc2ccc(CN3CCN(C)CC3)c(C(F)(F)F)c2)cc1C#Cc1cnc2cccnn12 [Ponatinib]		Inhibition of BRAF^V600E phosphorylation of recombinant MEK [11]: potent inhibitor; Inhibition of CRAF activity [12]: potently inhibited; Inhibition of ERK signaling [13]: inhibited ERK signaling
N#Cc1c(Oc2ccc(F)c(NC(=O)Cc3cccc(C(F)(F)F)c3)c2)ccc2nc(NC(=O)C3CC3)sc12 [TAK-632, reference compound]	36.2	

Continued, in another order:

IC50 [1] [nM]	Structure (SMILES)	other results
48	COc1cc(N2CCN(CCNCc3ccc(NC(=O)c4ccc(C)c(C#Cc5cnc6cccnn56)c4)cc3C(F)(F)F)CC2)ncn1 [Cmp. 4, 3-(imidazo[1,2-b]pyridazin-3-ylethynyl)-N-(4-(((2-(4-(6-methoxypyrimidin-4-yl)piperazin-1-yl)ethyl)amino)methyl)-3-(trifluoromethyl)phenyl)-4-methylbenzamide]	
44.3	Cc1ccc(C(=O)Nc2ccc(CNCCc3ccncn3)c(C(F)(F)F)c2)cc1C#Cc1cnc2cccnn12 [Cmp. 7, 3-(imidazo[1,2-b]pyridazin-3-ylethynyl)-4-methyl-N-(4-(((2-(pyrimidin-4-yl)ethyl)amino)methyl)-3-(trifluoromethyl)phenyl)benzamide]	
1790	C#Cc1cc(C(=O)Nc2ccc(CNCCN3CCN(C(=O)OC)CC3)c(C(F)(F)F)c2)ccc1C [Cmp. 8, Methyl 4-[2-([[4-(3-Ethynyl-4-Methylbenzamido)-2-(Trifluoromethyl)Phenyl]Methyl] Amino)Ethyl]Piperazine-1-Carboxylate]	
1360	C#Cc1cc(C(=O)Nc2ccc(CNCCN3CCOCC3)c(C(F)(F)F)c2)ccc1C [Cmp. 10, 3-ethynyl-4-methyl-N-(4-(((2-morpholinoethyl)amino)methyl)-3-(trifluoromethyl)phenyl)benzamide]	
8940	C#Cc1cc(C(=O)Nc2ccc(CNCCN3CCN(c4ccccc4)CC3)c(C(F)(F)F)c2)ccc1C [Cmp. 11, 3-Ethynyl-4-Methyl-N-[4-([[2-(4-Phenylpiperazin-1-Yl)Ethyl]Amino]Methyl)-3-(Trifluoromethyl)Phenyl] benzamide]	
11900	C#Cc1cc(C(=O)Nc2ccc(CNCCN3CCNCC3)c(C(F)(F)F)c2)ccc1C [Cmp. 12, 3-Ethynyl-4-Methyl-N-[4-([[2-(Piperazin-1-Yl)Ethyl]Amino]Methyl)-3-(Trifluoromethyl)Phenyl] benzamide]	
1830	C#Cc1cc(C(=O)Nc2ccc(CNCCN3CCN(c4ccccn4)CC3)c(C(F)(F)F)c2)ccc1C [Cmp. 14, 3-Ethynyl-4-Methyl-N-(4-(((2-(4-(Pyridin-2-Yl)Piperazin-1-Yl)Ethyl)Amino)Methyl)-3-(Trifluoromethyl)Phenyl) benzamide]	
10.4	Cc1ccc(C(=O)Nc2ccc(CNCCN3CCOCC3)c(C(F)(F)F)c2)cc1C#Cc1cnc2cccnn12 [PHI1, 3-(imidazo[1,2-b]pyridazin-3-ylethynyl)-4-methyl-N-(4-(((2-morpholinoethyl)amino)methyl)-3-(trifluoromethyl)phenyl)benzamide]	Growth inhibition (viability) [2]: inhibits effectively the growth; Reduction of inhibitory activity for FGFR relative to ponatinib [3]: 43 fold; IC50 ([4]; SKMEL239-C4 cells, 1 hr treatment): 300 to 500 nM; Co-operativity in second site inhibition of BRAF^V600E dimer (p-ERK IC50 upon Encorafenib pre-treatment) ([4]; SKMEL239 C4 cells with vs without Encorafenib pre-treatment): positive co-operativity; Binding affinity for BRAF monomers (ITC) [5]: high micromolar affinity; Reduction of inhibitory activity for FLT3 relative to ponatinib [6]: 10 fold; Activity against BRAF^V600E monomers in A375 cells [7]: significantly reduced compared to ponatinib; Difference in Koff values versus ponatinib (BLI) [8]: no significant difference; Affinity for BRAF^V600E compared to ponatinib (BLI) ([8]; 25° C., PBS, 0.01% Tween-20, 2% DMSO): higher affinity; Induction of BRAF/MEK complexes [9]: induces less; Induction of BRAF/CRAF complexes [10]: induces less
